Common to all, as to type: cell-based
One experiment addresses T1, EGFR WT (Ba/F3 cells) (Homo sapiens, UniProt P00533).
T1 construct: expressed in transfected cells; host or cells: Ba/F3 (murine pro-B cells), retroviral transduction, puromycin selection, maintained with EGF
Nature of the experiment: Inhibitor activity on EGFR-dependent cell growth (CellTiter-Glo, 72 h), Ba/F3 EGFR WT. Particulars: read-out: BaF3 WT IC50. In a few lines: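 This growth assay used Ba/F3 cells that depend on wild-type EGFR and are kept in EGF without IL3. Compounds were made up as 10 mM DMSO stocks and diluted 3-fold over 10 points. 120 nL went onto 600 cells/well. After 72 hours, 40 μL CellTiter-Glo was added and luminescence read on EnVision after 30 min.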

In experiment [1] the target is T2, EGFR exon 20 FQEA Ins A763_V764 (Ba/F3 cells) (Homo sapiens, UniProt P00533, INS763FQEA).
T2 construct: expressed in transfected cells; host or cells: Ba/F3 (murine pro-B cells), retroviral transduction, puromycin selection, IL3-independent pool
In words: Inhibitor activity on EGFR-dependent cell growth (CellTiter-Glo, 72 h), Ba/F3 EGFR exon 20 FQEA Ins. Particulars: read-out: BaF3 FQEA IC50. The method in brief: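 For each mutant line, growth depends on EGFR signalling in the absence of IL3. Density per well: 400 for L858R, 600 for the C797S double mutant, 800 for exon 19del and FQEA. Ten threefold dilutions were applied for 72 h. %Inhibition = 100×(DMSO − sample)/(DMSO − medium blank).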
For orientation: Cellular ATP, detected with luciferase, serves as a proxy for viable cell number.

Experiment [2] has as its target T3, EGFR exon 20 NPG Ins D770_N771 (Ba/F3 cells) (Homo sapiens, UniProt P00533, INS770NPG).
T3 construct: expressed in transfected cells; host or cells: Ba/F3 (murine pro-B cells), retroviral transduction, puromycin selection, IL3-independent pool
Nature of the experiment: Inhibitor activity on EGFR-dependent cell growth (CellTiter-Glo, 72 h), Ba/F3 EGFR exon 20 NPG Ins. Particulars: read-out: BaF3 NPG IC50. In a few lines: (§1)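 IC50s derive from a sigmoidal dose–response fit of CellTiter-Glo signal. The signal was normalised between […]-treated cells and cell-free medium. Ba/F3 mutant-EGFR cells, seeded at 400–800/well depending on the line, had 72 h of exposure to a 10-point, 3-fold compound series.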

Experiment [3] deals with T4, EGFR exon 20 ASV Ins V769_D770 (Ba/F3 cells) (Homo sapiens, UniProt P00533, INS769ASV).
T4 construct: expressed in transfected cells; host or cells: Ba/F3 (murine pro-B cells), retroviral transduction, puromycin selection, IL3-independent pool
Nature of the experiment: Inhibitor activity on EGFR-dependent cell growth (CellTiter-Glo, 72 h), Ba/F3 EGFR exon 20 ASV Ins. The following applies: read-out: BaF3 ASV IC50. The method in brief: as §1

For experiment [4], the target named is T5, EGFR exon 20 SVD Ins D770_N771 (Ba/F3 cells) (Homo sapiens, UniProt P00533, INS770SVD).
T5 construct: expressed in transfected cells; host or cells: Ba/F3 (murine pro-B cells), retroviral transduction, puromycin selection, IL3-independent pool
In words: Inhibitor activity on EGFR-dependent cell growth (CellTiter-Glo, 72 h), Ba/F3 EGFR exon 20 SVD Ins. Particulars: read-out: BaF3 SVD IC50. In a few lines: as §1

pIC50: −log10 of the molar value.

T4 sequence (P00533 with tags, fused parts or gaps INS769ASV): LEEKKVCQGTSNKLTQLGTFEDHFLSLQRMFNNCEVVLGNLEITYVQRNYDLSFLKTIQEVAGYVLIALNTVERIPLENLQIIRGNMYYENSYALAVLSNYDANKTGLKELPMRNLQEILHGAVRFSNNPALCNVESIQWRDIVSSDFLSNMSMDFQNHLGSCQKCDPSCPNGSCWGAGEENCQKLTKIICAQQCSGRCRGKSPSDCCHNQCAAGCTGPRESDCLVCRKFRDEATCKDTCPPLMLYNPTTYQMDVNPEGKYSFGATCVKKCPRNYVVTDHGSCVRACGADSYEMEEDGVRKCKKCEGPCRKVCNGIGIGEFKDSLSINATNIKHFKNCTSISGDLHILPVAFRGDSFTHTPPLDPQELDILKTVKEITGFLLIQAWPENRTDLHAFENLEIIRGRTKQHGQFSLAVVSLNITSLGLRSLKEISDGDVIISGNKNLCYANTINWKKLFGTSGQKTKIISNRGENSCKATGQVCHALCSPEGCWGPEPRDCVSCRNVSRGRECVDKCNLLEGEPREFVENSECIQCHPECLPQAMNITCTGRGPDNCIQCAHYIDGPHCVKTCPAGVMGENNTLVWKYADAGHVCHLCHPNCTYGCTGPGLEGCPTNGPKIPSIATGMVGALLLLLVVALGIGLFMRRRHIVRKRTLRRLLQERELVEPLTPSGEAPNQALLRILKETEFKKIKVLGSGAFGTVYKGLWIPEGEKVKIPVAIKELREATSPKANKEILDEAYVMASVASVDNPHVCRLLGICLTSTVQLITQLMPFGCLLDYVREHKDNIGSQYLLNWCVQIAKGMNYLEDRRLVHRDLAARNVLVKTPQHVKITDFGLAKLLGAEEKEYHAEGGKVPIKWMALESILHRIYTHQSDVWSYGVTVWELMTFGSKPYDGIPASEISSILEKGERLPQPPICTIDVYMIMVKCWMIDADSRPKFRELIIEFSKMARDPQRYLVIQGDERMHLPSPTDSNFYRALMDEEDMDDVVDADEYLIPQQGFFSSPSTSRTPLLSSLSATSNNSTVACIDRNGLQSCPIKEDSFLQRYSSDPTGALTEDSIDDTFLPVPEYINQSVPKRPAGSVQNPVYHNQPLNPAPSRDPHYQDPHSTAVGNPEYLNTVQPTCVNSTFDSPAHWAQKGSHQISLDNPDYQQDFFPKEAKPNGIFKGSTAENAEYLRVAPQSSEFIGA
T5 sequence (P00533 with tags, fused parts or gaps INS770SVD): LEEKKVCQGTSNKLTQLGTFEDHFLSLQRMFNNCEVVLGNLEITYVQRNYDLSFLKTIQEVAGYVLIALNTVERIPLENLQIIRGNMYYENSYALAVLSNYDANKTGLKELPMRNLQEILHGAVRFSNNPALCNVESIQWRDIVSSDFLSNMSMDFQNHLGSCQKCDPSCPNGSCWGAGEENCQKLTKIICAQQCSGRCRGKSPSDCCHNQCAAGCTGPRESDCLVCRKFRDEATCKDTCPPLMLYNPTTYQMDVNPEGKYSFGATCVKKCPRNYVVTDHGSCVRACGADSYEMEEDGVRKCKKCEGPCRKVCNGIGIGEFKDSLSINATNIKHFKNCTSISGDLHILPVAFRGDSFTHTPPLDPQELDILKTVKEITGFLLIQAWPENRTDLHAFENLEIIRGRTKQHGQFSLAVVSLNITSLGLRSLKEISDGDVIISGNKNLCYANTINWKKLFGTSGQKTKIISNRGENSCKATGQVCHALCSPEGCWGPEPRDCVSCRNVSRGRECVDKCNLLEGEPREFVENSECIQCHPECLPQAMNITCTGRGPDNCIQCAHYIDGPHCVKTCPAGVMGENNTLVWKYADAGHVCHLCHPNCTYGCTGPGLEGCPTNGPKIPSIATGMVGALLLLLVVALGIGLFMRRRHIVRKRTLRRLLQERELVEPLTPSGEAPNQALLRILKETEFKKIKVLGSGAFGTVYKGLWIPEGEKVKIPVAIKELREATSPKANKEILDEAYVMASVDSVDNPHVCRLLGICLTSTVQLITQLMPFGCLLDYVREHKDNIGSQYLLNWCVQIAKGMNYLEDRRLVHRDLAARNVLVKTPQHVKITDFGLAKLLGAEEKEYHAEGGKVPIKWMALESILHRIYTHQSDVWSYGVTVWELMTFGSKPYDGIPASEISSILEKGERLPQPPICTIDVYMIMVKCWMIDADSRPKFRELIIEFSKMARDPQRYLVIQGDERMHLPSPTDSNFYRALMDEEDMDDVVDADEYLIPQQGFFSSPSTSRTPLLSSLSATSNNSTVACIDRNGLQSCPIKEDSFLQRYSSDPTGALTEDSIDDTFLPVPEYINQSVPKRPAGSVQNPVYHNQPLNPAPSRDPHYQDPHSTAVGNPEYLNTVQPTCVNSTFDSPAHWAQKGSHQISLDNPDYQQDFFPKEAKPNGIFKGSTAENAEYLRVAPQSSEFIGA
T1 sequence (P00533 25-1210): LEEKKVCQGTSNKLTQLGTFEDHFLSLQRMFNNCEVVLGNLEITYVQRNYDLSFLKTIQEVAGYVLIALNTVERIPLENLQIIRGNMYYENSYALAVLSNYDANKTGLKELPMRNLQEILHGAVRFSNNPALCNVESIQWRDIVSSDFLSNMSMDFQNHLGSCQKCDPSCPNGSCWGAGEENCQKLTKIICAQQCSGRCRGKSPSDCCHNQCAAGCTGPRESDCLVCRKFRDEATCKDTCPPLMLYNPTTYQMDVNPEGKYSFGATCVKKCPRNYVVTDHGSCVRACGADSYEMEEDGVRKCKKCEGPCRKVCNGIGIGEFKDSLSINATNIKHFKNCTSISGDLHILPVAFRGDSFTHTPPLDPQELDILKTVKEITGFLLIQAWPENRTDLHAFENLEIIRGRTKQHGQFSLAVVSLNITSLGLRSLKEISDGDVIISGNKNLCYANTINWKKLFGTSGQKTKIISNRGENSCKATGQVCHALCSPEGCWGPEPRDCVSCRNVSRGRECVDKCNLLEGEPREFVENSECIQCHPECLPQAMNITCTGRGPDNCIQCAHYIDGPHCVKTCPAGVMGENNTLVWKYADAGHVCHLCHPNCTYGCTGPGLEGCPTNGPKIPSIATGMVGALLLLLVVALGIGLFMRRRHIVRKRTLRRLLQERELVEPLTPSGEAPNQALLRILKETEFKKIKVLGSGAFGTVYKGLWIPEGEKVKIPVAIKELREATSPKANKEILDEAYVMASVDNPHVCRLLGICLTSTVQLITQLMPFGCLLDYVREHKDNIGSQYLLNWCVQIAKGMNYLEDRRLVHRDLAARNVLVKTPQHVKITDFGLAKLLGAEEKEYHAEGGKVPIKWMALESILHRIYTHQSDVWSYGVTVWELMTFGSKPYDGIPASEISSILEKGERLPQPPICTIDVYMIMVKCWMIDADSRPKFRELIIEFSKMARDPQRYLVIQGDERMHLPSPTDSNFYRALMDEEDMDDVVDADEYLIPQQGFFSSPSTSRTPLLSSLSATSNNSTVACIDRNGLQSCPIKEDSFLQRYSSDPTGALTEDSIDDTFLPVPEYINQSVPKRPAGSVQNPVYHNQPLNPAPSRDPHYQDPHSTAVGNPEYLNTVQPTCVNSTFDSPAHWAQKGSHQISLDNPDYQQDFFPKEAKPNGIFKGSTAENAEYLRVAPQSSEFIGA
T3 sequence (P00533 with tags, fused parts or gaps INS770NPG): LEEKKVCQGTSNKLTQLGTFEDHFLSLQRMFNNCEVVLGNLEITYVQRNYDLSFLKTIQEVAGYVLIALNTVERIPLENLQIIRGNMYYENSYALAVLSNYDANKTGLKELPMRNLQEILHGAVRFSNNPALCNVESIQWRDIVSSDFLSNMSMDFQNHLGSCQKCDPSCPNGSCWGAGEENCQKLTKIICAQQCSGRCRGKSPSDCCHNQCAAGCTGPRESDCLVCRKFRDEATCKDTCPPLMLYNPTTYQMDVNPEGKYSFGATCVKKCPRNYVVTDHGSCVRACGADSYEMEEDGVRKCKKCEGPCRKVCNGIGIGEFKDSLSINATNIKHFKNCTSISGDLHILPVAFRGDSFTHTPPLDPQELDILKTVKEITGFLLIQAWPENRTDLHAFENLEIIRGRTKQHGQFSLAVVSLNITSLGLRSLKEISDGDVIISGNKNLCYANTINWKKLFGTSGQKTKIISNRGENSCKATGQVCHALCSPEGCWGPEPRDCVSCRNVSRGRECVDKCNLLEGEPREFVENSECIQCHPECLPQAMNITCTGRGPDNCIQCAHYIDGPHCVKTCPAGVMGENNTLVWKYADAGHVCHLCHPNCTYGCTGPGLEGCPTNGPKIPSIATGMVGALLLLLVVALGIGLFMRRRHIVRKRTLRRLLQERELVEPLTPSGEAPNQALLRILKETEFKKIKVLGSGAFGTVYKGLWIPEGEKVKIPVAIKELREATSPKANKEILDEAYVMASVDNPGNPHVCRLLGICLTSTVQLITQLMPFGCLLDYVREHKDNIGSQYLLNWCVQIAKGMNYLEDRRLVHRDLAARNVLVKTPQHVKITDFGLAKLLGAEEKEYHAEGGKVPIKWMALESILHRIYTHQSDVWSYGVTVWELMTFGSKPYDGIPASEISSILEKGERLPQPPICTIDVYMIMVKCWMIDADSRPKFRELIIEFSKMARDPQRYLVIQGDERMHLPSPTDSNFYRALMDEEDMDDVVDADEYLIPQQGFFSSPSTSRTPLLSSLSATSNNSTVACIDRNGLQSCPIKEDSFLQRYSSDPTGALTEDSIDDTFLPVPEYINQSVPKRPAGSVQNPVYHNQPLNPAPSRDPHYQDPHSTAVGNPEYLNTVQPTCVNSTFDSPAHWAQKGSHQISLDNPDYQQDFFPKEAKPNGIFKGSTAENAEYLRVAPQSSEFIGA

One may read the pIC50 as −log10 of the IC50, conventionally taken in molar units. For the compound `COc1c(Cl)cccc1Nc1c(-c2ccncc2F)[nH]c2c1C(=O)NC[C@@H]2CC(=O)N(C)C` [Compound 488], the pIC50 on EGFR WT (Ba/F3 cells) was below 6.00; in experiment [1], 6.00 to 7.00; in experiment [2], above 7.00; in experiment [3] it was above 7.00; in experiment [4] it was above 7.00.

Take `CSc1c(F)cccc1Nc1c(-c2ccnc(N)n2)[nH]c2c1C(=O)NCC2` [Compound 716, 2-(2-aminopyrimidin-4-yl)-3-[[3-fluoro-2-(methylsulfanyl)phenyl]amino]-1H,5H,6H,7H-pyrrolo[3,2-c]pyridin-4-one; trifluoroacetic acid]: the pIC50 is below 6.00 at EGFR WT (Ba/F3 cells); 6.00 to 7.00 in experiment [1]; 6.00 to 7.00 in experiment [2]; 6.00 to 7.00 in experiment [3]; 6.00 to 7.00 in experiment [4].

On to `COc1c(F)cccc1Nc1c(-c2ccncc2F)[nH]c2c1C(=O)NC[C@@H]2C[C@@H]1COCCO1` [Compound 526, (7S)-7-[(2R)-1,4-dioxan-2-ylmethyl]-3-[(3-fluoro-2-methoxyphenyl)amino]-2-(3-fluoropyridin-4-yl)-1H,5H,6H,7H-pyrrolo[3,2-c]pyridin-4-one], for which the pIC50 on EGFR WT (Ba/F3 cells) is below 6.00; in experiment [1], 6.00 to 7.00; in experiment [2], 6.00 to 7.00; in experiment [3], 6.00 to 7.00; in experiment [4], 6.00 to 7.00.

Turning to `COc1c(Cl)cccc1Nc1c(-c2ccnc3ccc(OCCN(C)C)nc23)[nH]c2c1C(=O)NCC2` [compound 736, 3-[(3-chloro-2-methoxyphenyl)amino]-2-[6-[2-(dimethylamino)ethoxy]-1,5-naphthyridin-4-yl]-1H,5H,6H,7H-pyrrolo[3,2-c] pyridin-4-one; formic acid], the pIC50 was 6.00 to 7.00 at EGFR WT (Ba/F3 cells); 6.00 to 7.00 in experiment [1]; 6.00 to 7.00 in experiment [2]; above 7.00 in experiment [3]; above 7.00 in experiment [4].

Take `COc1c(Cl)cccc1Nc1c(-c2ccnc3ccc(OCC4COC4)nc23)[nH]c2c1C(=O)NCC2` [compound 737, 3-[(3-chloro-2-methoxyphenyl)amino]-2-[6-(oxetan-3-ylmethoxy)-1,5-naphthyridin-4-yl]-1H,5H,6H,7H-pyrrolo[3,2-c] pyridin-4-one]: the pIC50 on EGFR WT (Ba/F3 cells) was 6.00 to 7.00; in experiment [1], above 7.00; in experiment [2], above 7.00; in experiment [3] it was above 7.00; in experiment [4] it was above 7.00.

Consider `COc1c(Cl)cccc1Nc1c(-c2ccnc3ccc(OCC4CN(C)C4)nc23)[nH]c2c1C(=O)NCC2` [compound 738, 3-[(3-chloro-2-methoxyphenyl)amino]-2-[6-[(1-methylazetidin-3-yl)methoxy]-1,5-naphthyridin-4-yl]-1H,5H,6H,7H-pyrrolo[3,2-c]pyridin-4-one], for which the pIC50 on EGFR WT (Ba/F3 cells) was 6.00 to 7.00; in experiment [1], 6.00 to 7.00; in experiment [2], above 7.00; in experiment [3], above 7.00; in experiment [4], above 7.00.

Consider `COCC[C@H]1CNC(=O)c2c1[nH]c(-c1ccncc1F)c2Nc1cccc(F)c1OC` [421a], for which the pIC50 at EGFR WT (Ba/F3 cells) is below 6.00; in experiment [1], 6.00 to 7.00; in experiment [2] it was 6.00 to 7.00; in experiment [3] it was 6.00 to 7.00; in experiment [4], 6.00 to 7.00.

Regarding `COc1c(Cl)cccc1Nc1c(-c2ccncc2F)[nH]c2c1C(=O)NC[C@@H]2CC1COC1` [468a], the pIC50 on EGFR WT (Ba/F3 cells) was below 6.00; in experiment [1] it was below 6.00; in experiment [2] it was 6.00 to 7.00; in experiment [3], below 6.00; in experiment [4], below 6.00.

`COc1c(Cl)cccc1Nc1c(-c2ccnc3ccc(OCC4(C(F)(F)F)CC4)nc23)[nH]c2c1C(=O)NCC2` [compound 758, 3-[(3-chloro-2-methoxyphenyl)amino]-2-(6-[[1-(trifluoromethyl)cyclopropyl]methoxy]-1,5-naphthyridin-4-yl)-1H,5H,6H,7H-pyrrolo[3,2-c]pyridin-4-one]: the pIC50 (on EGFR WT (Ba/F3 cells); in experiment [1]; in experiment [2]; in experiment [3]; in experiment [4]) was 6.00 to 7.00 each time.

On to `COc1c(Cl)cccc1Nc1c(-c2ccnc(Nc3ccn(C)n3)n2)[nH]c2c1C(=O)NCC2` [compound 509, 3-[(3-chloro-2-methoxyphenyl)amino]-2-{2-[(1-methylpyrazol-3-yl)amino]pyrimidin-4-yl}-1H,5H,6H,7H-pyrrolo[3,2-c]pyridin-4-one], for which the pIC50 (at EGFR WT (Ba/F3 cells); in experiment [1]; in experiment [2]; in experiment [3]; in experiment [4]) was above 7.00 throughout.

In the case of `COc1c(Cl)cccc1Nc1c(-c2ccnc3ccc(OC[C@H]4CCO4)nc23)[nH]c2c1C(=O)NCC2` [compound 734, 3-[(3-chloro-2-methoxyphenyl)amino]-2-[6-[(2R)-oxetan-2-ylmethoxy]-1,5-naphthyridin-4-yl]-1H,5H,6H,7H-pyrrolo[3,2-c]pyridin-4-one], the pIC50 was 6.00 to 7.00 on EGFR WT (Ba/F3 cells); above 7.00 in experiment [1]; above 7.00 in experiment [2]; above 7.00 in experiment [3]; above 7.00 in experiment [4].

For the compound `COc1c(Cl)cccc1Nc1c(-c2ccnc3ccc(OC4COC4)nc23)[nH]c2c1C(=O)NCC2` [compound 732, 3-[(3-chloro-2-methoxyphenyl)amino]-2-[6-(oxetan-3-yloxy)-1,5-naphthyridin-4-yl]-1H,5H,6H,7H-pyrrolo[3,2-c]pyridin-4-one], the pIC50 (on EGFR WT (Ba/F3 cells); in experiment [1]; in experiment [2]; in experiment [3]; in experiment [4]) was above 7.00 in each case.

Regarding `COc1c(F)cccc1Nc1c(-c2ccncc2F)[nH]c2c1C(=O)NC[C@@H]2CC1COC1` [469b], the negative-log IC50 (pIC50) (on EGFR WT (Ba/F3 cells); in experiment [1]; in experiment [2]; in experiment [3]; in experiment [4]) was below 6.00 each time.

For `CCOc1ccc2nccc(-c3[nH]c4c(c3Nc3cccc(Cl)c3OC)C(=O)NCC4)c2n1` [compound 761, 3-[(3-chloro-2-methoxyphenyl)amino]-2-(6-ethoxy-1,5-naphthyridin-4-yl)-1H,5H,6H,7H-pyrrolo[3,2-c]pyridin-4-one], the negative-log IC50 (pIC50) (at EGFR WT (Ba/F3 cells); in experiment [1]; in experiment [2]; in experiment [3]; in experiment [4]) was above 7.00 throughout.

For `COc1c(Cl)cccc1Nc1c(-c2ccnc3ccc(O[C@@H]4CCCOC4)nc23)[nH]c2c1C(=O)NCC2` [compound 742, 3-[(3-chloro-2-methoxyphenyl)amino]-2-[6-[(3R)-oxan-3-yloxy]-1,5-naphthyridin-4-yl]-1H,5H,6H,7H-pyrrolo[3,2-c]pyridin-4-one; formic acid], the pIC50 was 6.00 to 7.00 at EGFR WT (Ba/F3 cells); above 7.00 in experiment [1]; above 7.00 in experiment [2]; above 7.00 in experiment [3]; above 7.00 in experiment [4].

With `COc1c(Cl)cccc1Nc1c(-c2ccnc3cccnc23)[nH]c2c1C(=O)NCC2` [Compound 683, 3-[(3-chloro-2-methoxyphenyl)amino]-2-(1,5-naphthyridin-4-yl)-1H,5H,6H,7H-pyrrolo[3,2-c]pyridin-4-one], the pIC50 on EGFR WT (Ba/F3 cells) was 6.00 to 7.00; in experiment [1], above 7.00; in experiment [2], above 7.00; in experiment [3], above 7.00; in experiment [4], above 7.00.

In the case of `COc1c(Cl)cccc1Nc1c(-c2ccnc3ccc(O[C@H]4CCOC4)nc23)[nH]c2c1C(=O)NCC2` [compound 739, 3-[(3-chloro-2-methoxyphenyl)amino]-2-[6-[(3S)-oxolan-3-yloxy]-1,5-naphthyridin-4-yl]-1H,5H,6H,7H-pyrrolo[3,2-c]pyridin-4-one], the negative-log IC50 (pIC50) was 6.00 to 7.00 on EGFR WT (Ba/F3 cells); 6.00 to 7.00 in experiment [1]; above 7.00 in experiment [2]; above 7.00 in experiment [3]; above 7.00 in experiment [4].

Turning to `COc1c(Cl)cccc1Nc1c(-c2ccnc3ccc(OC[C@@H]4CCO4)nc23)[nH]c2c1C(=O)NCC2` [compound 735, 3-[(3-chloro-2-methoxyphenyl)amino]-2-[6-[(2S)-oxetan-2-ylmethoxy]-1,5-naphthyridin-4-yl]-1H,5H,6H, 7H-pyrrolo[3,2-c]pyridin-4-one], the pIC50 at EGFR WT (Ba/F3 cells) is 6.00 to 7.00; in experiment [1], above 7.00; in experiment [2] it was above 7.00; in experiment [3], above 7.00; in experiment [4] it was above 7.00.

For the compound `COc1c(Cl)cccc1Nc1c(-c2ccnc3ccc(OC4(C)CC4)nc23)[nH]c2c1C(=O)NCC2` [Compound 767, 3-[(3-chloro-2-methoxyphenyl)amino]-2-[6-(1-methylcyclopropoxy)-1,5-naphthyridin-4-yl]-1H,5H,6H,7H-pyrrolo[3,2-c]pyridin-4-one], the pIC50 (on EGFR WT (Ba/F3 cells); in experiment [1]; in experiment [2]; in experiment [3]; in experiment [4]) was above 7.00 throughout.
